Results as given in patent US20080161305A1, “C-Met Modulators and Methods of Use” (EXELIXIS, INC., priority 2005, published 2008).

Experiments:
Type in all cases: biochemical
[1] = molecular target: T1, KDR (baculovirus expressed human KDR kinase domain D807-V1356) (Homo sapiens, UniProt P35968); assay: KDR Luciferase-Coupled Chemiluminescent Kinase assay (LCCA); conditions: 3 μM ATP, 5 nM KDR
T1 construct: human KDR kinase domain D807-V1356; made in house
Procedure: (§1) Kinase activity and compound inhibition are investigated using one or more of the three assay formats described below. The ATP concentrations for each assay are selected to be close to the Michaelis-Menten constant (KM) for each individual kinase. Dose-response experiments are performed at 10 different inhibitor concentrations in a 384-well plate format. The data are fitted to the following four-parameter equation:
(§2) Y=Min+(Max−Min)/(1+(X/IC50)̂H)
(§3) where Y is the observed signal, X is the inhibitor concentration, Min is the background signal in the absence of enzyme (0% enzyme activity), Max is the signal in the absence of inhibitor (100% enzyme activity), IC50 is the inhibitor concentration at 50% enzyme inhibition and H represents the empirical Hill's slope to measure the cooperativity. Typically H is close to unity. c-Met Assay
(§4) KDR biochemical activity was assessed using a Luciferase-Coupled Chemiluminescent Kinase assay (LCCA) format. Kinase activity was measured as the percent ATP remaining following the kinase reaction. Remaining ATP was detected by luciferase-luciferin-coupled chemiluminescence. […] The mixture is incubated at ambient temperature for 4 hours after which 20 uL luciferase-luciferin mix is added and the chemiluminescent signal read using a Wallac Victor^2 reader. […]

[2] = molecular target: T2, Flt-3 (baculovirus expressed human Flt-3 kinase domain R571-S993) (Homo sapiens, UniProt P36888); assay: flt-3 Luciferase-Coupled Chemiluminescent Kinase assay (LCCA); conditions: 5 μM ATP, 5 nM Flt-3; read-out: flt3 IC50
T2 construct: human Flt-3 kinase domain R571-S993; made in house
T2 sequence (P36888 571-993): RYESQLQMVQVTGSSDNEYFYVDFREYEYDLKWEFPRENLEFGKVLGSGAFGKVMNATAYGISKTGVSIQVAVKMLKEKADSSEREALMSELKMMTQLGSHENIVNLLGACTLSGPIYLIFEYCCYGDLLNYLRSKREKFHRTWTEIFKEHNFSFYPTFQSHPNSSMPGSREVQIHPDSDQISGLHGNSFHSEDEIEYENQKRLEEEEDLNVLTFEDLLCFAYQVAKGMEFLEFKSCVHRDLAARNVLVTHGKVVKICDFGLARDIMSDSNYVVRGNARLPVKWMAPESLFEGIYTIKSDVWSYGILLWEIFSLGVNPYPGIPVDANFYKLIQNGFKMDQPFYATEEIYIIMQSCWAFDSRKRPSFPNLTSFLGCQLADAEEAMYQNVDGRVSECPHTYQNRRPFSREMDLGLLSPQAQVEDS
Procedure: as §1, §2, §3
Biochemical activity for flt-3 was assessed using a Luciferase-Coupled Chemiluminescent Kinase assay (LCCA) format. Kinase activity was measured as the percent ATP remaining following the kinase reaction. Remaining ATP was detected by luciferase-luciferin-coupled chemiluminescence. […] The mixture is incubated at ambient temperature for 3 hours after which 20 uL luciferase-luciferin mix is added and the chemiluminescent signal read using a Wallac Victor^2 reader. […]

[3] = molecular target: T3, Flt-4 (baculovirus expressed human Flt-4 kinase domain D725-R1298) (Homo sapiens, UniProt P35916); assay: flt-4 Alphascreen Tyrosine Kinase assay; conditions: 5 μM ATP, 1 nM Flt-4; read-out: flt4 IC50
T3 construct: human Flt-4 kinase domain D725-R1298; made in house
Procedure: as §1, §2, §3
Biochemical activity for flt-4 was assessed using an Alphascreen Tyrosine Kinase protocol. AlphaScreen™ (Perkin Elmer) technology is a proximity assay employing microparticles. […] Substrate phosphorylation was measured by addition of donor/acceptor beads by chemiluminescence following donor-acceptor bead complex formation. […] After 2-16 hr incubation at ambient temperature plates were read using an AlphaQuest reader (Perkin Elmer). IC50 values correlate well with those determined by radiometric assays.

[4] = molecular target: c-Met (baculovirus expressed human c-Met kinase domain P948-S1343) (Homo sapiens, UniProt P08581); assay: c-Met Luciferase-Coupled Chemiluminescent Kinase assay (LCCA); conditions: 1 μM ATP, 10 nM c-Met
Procedure: as §1, §2, §3
as §4, with “c-Met” for “KDR”, “format as described above. Again, kinase” for “format. Kinase”, “2” for “4”

c-Kit kinase = c-Kit kinase (Homo sapiens, UniProt P10721); assay: c-Kit AlphaScreen assay
Procedure: as §1, §2, §3
c-Kit biochemical activity was assessed using AlphaScreen™ (Perkin Elmer) technology, described above. Test compounds, ATP, biotinylated poly(Glu, Tyr) and c-Kit kinase were combined in a volume of 20 μL in a 384-well white, medium binding microtiter plate (Greiner). Reaction mixtures were incubated for 1 hr at ambient temperature. […] After 16 hr incubation at ambient temperature plates were read using an AlphaQuest reader (Perkin Elmer).

Measured: IC50

Sequence of c-Met (baculovirus expressed human c-Met kinase domain P948-S1343) (P08581 1078-1345 limits assumed): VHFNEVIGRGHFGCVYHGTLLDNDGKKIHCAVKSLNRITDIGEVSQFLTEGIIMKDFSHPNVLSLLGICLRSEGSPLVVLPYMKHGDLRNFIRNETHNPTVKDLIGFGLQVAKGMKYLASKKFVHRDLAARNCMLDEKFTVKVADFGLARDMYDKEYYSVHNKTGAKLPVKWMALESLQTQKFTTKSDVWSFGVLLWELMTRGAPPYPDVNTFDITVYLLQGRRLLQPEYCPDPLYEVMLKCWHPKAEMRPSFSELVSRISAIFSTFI
Sequence of c-Kit kinase (P10721 26-976): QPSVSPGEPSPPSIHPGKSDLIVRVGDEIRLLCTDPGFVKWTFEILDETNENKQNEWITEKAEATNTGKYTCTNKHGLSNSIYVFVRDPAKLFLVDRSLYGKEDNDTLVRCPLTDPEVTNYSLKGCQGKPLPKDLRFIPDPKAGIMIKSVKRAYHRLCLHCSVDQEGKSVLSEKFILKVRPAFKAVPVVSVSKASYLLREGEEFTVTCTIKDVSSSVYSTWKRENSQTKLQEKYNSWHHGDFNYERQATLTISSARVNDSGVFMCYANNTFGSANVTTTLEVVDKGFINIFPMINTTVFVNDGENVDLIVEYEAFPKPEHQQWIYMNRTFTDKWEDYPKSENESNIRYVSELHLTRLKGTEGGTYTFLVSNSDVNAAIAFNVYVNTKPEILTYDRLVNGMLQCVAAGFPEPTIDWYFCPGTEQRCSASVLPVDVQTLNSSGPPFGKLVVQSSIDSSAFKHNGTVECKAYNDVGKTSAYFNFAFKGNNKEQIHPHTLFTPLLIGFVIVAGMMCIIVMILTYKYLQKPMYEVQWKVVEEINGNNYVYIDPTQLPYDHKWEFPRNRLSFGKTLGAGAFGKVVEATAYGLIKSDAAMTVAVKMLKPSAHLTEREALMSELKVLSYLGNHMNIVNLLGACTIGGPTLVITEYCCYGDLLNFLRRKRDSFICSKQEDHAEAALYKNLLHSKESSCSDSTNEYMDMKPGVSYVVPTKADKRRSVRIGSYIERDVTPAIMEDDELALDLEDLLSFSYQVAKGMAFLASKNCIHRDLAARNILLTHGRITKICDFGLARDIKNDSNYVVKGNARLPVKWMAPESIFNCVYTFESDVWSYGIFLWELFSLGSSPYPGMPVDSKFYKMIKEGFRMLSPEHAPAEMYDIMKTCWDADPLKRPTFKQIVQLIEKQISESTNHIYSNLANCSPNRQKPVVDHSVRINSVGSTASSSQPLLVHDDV
T3 sequence (P35916 725-1298 isoform P35916-1): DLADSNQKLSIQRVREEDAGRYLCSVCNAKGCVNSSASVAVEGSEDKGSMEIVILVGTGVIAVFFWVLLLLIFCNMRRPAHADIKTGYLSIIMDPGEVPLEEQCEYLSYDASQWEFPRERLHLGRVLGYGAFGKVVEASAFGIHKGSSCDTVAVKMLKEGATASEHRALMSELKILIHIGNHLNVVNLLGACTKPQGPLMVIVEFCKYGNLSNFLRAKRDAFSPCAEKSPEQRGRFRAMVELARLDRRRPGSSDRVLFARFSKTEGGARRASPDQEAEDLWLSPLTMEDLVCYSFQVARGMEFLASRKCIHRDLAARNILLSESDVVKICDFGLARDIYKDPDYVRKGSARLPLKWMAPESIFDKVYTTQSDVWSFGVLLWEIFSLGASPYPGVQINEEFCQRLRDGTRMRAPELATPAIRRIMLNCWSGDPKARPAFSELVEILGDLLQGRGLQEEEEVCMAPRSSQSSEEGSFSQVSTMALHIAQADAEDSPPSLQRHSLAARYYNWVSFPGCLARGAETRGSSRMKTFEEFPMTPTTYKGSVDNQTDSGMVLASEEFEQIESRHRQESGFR
T1 sequence (P35968 807-1356): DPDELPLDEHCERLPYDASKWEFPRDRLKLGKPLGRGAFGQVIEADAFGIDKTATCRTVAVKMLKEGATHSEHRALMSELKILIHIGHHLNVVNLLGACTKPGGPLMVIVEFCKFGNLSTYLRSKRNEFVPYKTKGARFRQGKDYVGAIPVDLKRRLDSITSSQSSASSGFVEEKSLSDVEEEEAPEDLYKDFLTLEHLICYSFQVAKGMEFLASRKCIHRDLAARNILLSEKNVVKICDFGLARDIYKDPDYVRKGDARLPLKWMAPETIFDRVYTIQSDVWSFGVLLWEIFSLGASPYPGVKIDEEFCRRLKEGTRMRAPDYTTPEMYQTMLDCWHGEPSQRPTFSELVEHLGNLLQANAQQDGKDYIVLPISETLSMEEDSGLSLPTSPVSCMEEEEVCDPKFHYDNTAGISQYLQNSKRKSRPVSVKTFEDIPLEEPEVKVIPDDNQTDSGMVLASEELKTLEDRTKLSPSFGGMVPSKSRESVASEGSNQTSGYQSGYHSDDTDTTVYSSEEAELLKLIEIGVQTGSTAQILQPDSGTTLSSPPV

COc1cc2c(Oc3ccc(NC(=O)C(=O)NCCc4ccc(F)cc4)cc3F)ccnc2cc1OCCCN1CCOCC1 [Entry 1, N-[3-fluoro-4-({6-(methyloxy)-7-[(3-morpholin-4-ylpropyl)oxy]quinolin-4-yl}oxy)phenyl]-N′-[2-(4-fluorophenyl)ethyl]ethanediamide]
< 50 nM: all assays above
